Experimental data taken from article PMC4256678 (Nature neuroscience, 2014).

Assays:
[1] = target: T1, HDAC3 (Homo sapiens, UniProt O15379); assay: fluorometric HDAC activity assay, […]; assay type: biochemical
[2] = target: T2, HDAC8 (Homo sapiens, UniProt Q9BY41); assay: fluorometric HDAC activity assay, […]; assay type: biochemical
T2 sequence (Q9BY41 1-377): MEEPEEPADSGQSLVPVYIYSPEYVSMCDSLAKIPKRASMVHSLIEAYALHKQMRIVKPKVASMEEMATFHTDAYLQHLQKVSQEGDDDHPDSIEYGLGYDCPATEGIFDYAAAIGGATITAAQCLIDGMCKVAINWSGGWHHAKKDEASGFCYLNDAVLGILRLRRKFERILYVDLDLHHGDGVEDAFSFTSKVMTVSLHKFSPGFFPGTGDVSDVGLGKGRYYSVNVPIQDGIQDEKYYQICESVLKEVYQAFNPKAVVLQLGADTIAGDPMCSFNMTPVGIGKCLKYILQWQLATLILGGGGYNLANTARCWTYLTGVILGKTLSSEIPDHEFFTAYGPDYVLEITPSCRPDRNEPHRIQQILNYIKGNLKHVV

[3] = target: T3, HDAC2 (Homo sapiens, UniProt Q92769); assay: fluorometric HDAC activity assay, […]; assay type: biochemical
[4] = target: HDAC1 (Homo sapiens, UniProt Q13547); assay: […]FTY720-P radioligand binding and displacement on Ni-NTA immobilized HDAC1
[5] = target: T1, HDAC3; assay: fluorometric HDAC activity assay, […]; assay type: biochemical; remark: listed apart in the source
[6] = target: T3, HDAC2; assay: fluorometric HDAC activity assay, […]; assay type: biochemical; remark: listed apart in the source

T3 sequence (Q92769 whole entry): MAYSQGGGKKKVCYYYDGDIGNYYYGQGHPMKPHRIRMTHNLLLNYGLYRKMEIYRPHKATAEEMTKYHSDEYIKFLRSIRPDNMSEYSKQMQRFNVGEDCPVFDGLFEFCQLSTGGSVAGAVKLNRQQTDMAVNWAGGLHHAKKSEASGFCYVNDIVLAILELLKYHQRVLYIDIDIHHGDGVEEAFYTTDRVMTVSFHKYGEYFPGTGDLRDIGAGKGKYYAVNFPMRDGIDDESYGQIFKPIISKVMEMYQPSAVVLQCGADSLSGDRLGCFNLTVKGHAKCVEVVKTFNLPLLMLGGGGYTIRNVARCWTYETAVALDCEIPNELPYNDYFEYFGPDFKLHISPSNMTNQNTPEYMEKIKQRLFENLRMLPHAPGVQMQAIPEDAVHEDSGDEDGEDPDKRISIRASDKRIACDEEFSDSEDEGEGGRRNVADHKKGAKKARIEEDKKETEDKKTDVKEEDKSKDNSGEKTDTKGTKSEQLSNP
T1 sequence (O15379 whole entry): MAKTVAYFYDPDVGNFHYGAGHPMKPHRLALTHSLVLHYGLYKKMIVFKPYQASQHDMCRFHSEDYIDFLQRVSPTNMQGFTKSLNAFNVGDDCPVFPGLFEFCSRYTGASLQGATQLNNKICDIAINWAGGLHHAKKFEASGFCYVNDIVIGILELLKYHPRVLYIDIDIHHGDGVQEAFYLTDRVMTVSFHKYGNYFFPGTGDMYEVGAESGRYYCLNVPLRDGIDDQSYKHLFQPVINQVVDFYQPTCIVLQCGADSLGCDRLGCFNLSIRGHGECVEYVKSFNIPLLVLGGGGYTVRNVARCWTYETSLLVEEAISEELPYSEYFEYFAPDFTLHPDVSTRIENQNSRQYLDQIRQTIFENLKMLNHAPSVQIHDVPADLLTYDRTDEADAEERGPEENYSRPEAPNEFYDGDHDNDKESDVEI
Sequence of HDAC1 (Q13547 whole entry): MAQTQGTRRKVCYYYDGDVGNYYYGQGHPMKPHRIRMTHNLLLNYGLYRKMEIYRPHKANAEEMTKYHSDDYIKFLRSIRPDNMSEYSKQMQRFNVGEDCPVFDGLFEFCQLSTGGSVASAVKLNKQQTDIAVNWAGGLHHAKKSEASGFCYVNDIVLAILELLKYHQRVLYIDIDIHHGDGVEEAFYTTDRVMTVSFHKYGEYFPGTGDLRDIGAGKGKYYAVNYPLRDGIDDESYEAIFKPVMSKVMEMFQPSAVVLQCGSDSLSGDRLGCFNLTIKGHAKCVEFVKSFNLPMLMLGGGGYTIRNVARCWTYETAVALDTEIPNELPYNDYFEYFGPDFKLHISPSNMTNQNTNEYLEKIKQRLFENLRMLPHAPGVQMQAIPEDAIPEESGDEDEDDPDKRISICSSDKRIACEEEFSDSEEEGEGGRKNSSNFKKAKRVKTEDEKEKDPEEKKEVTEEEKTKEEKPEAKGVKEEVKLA

Row | Kd [4] [nM] | Structure (SMILES) | fluorometric HDAC activity assay, 0.5 or 5 uM [1] | fluorometric HDAC activity assay, 0.5 or 5 uM [2] | fluorometric HDAC activity assay, 0.5 or 5 uM [3] | fluorometric HDAC activity assay, 5 uM [5] | fluorometric HDAC activity assay, 5 uM [6]
1 | 6.2 | CCCCCCCCc1ccc(CC[C@](N)(CO)COP(=O)(O)O)cc1 [FTY720-P] | FTY720-P inhibited the activities of highly purified recombinant class I HDACs (HDAC1, HDAC2, HDAC3 and HDAC8) | FTY720-P inhibited the activities of highly purified recombinant class I HDACs (HDAC1, HDAC2, HDAC3 and HDAC8) | FTY720-P inhibited the activities of highly purified recombinant class I HDACs (HDAC1, HDAC2, HDAC3 and HDAC8) | – | –
2 | – | CCCCCCCCCCCCC/C=C/[C@@H](O)[C@@H](N)COP(=O)(O)O [S1P] | – | – | – | Even though S1P inhibited HDAC1–HDAC3, it did not inhibit HDAC8 activity | Even though S1P inhibited HDAC1–HDAC3, it did not inhibit HDAC8 activity
